The source of these data is patent US4131727A, “Method of purifying alcohol dehydrogenase and affinity resin therefor” (President and Fellows of Harvard College, priority 1978, dated 1978).

The target in one test is alcohol dehydrogenase. Put plainly: Dissociation of binary complex of alcohol dehydrogenase with NAD. Type of test: binding. Particulars: read-out: dissociation constant of the complex. The source says: The binary complex, in which two molecules of NAD are complexed with 1 molecule of alcohol dehydrogenase, can be prepared simply by mixing NAD with the crude extract of alcohol dehydrogenase. In order to ensure that substantially all of the alcohol dehydrogenase is present in solution in the form of the binary complex, it is desirable to employ an excess of the amount of NAD over that theoretically required. […] Although larger amounts of NAD can be used, there is no advantage in using a concentration above about 10^-3 molar since optimum results are achieved at that concentration with no further improvement even when the concentration of the NAD is 10^-2 molar or even higher, the results being approximately the same at these higher concentrations. The aqueous medium containing the binary complex may be acidified if desired. Satisfactory results are obtained at pH 8.0, but may be improved by decreasing the pH to approximately 7.5 in order to achieve optimum results; however, no further improvement is achieved by further lowering of the pH, the results remaining about the same even at a pH below 6.

Test [1] has as its system other forms of liver alcohol dehydrogenase. As to the kind of experiment: Inhibition of the other (pyrazole-sensitive) forms of liver alcohol dehydrogenase. To be noted: 0.2 mM 4-methylpyrazole, 100 mM ethanol, remainder of the purified enzyme forms. It counts as biochemical, human. The source says:
(§1) However, purification of these enzymes has been a complicated and difficult procedure. […] Elution is preferably carried out with pyrazole solution or with a lower alkanol having at least two carbon atoms, e.g., ethanol, 1-propanol, 1-butanol, 1-pentanol, and the like. Further purification and separation of isoenzymes from the bound portion can be achieved by alcohol gradient elution. The alcohol dehydrogenase of the bound portion can be separated from the NAD after elution, if desired, by conventional dialysis procedures. […] The anodic band of liver alcohol dehydrogenase, as identified by Li et al., Biochem. Biophys. Res. Comm.

For test [2], the target named is T1, II-ADH (anodic band of liver alcohol dehydrogenase) (Homo sapiens, UniProt P08319).
T1 construct: Starting with 100 g frozen human liver; from tissue; host or cells: human liver (frozen)
T1 sequence (P08319 2-380 limits assumed): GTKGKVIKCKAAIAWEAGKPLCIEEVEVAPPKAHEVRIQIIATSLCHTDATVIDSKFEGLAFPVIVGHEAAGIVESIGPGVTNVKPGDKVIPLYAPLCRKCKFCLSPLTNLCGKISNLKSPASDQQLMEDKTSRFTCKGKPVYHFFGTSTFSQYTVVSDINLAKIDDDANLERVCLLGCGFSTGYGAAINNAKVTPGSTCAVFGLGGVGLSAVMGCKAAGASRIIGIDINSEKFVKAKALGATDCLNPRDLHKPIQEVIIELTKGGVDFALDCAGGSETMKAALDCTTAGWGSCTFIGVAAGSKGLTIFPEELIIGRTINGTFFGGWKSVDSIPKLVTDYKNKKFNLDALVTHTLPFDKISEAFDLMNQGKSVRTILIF
Put plainly: Inhibition of purified II-ADH (anodic band, pyrazole-insensitive liver alcohol dehydrogenase) activity. To be noted: 33 micromolar 4-methyl-pyrazole, product after agarose-AMP. It counts as biochemical.
Description: as §1

The subject of test [3] is human liver alcohol dehydrogenase. Put plainly: Inhibition of alcohol dehydrogenase activity of starting human liver. To be noted: 33 micromolar 4-methyl-pyrazole, pH 10, frozen human liver starting material. Type of test: biochemical. How it is done:
Starting with 100 g frozen human liver having a specific activity of pH 10 of about 0.05 I.U./mg and low inhibition (~ 75%) by 33 micromolar 4-methyl-pyrazole at pH 10 as well as high intensity of stain for the anodic band on starch gel electrophoresis, the liver was homogenized in 2.5 volumes water at 4° C., centrifuged for 30 min. at 30,000 rpm in a 30 rotor to provide 240 ml of clear supernatant assaying at 58 I.U. of pyrazole-insensitive activity with a specific activity of 0.002 I.U./mg.

Molecules are shown by their SMILES.

On to `NC(=O)c1ccc[n+]([C@@H]2O[C@H](COP(=O)([O-])OP(=O)(O)OC[C@H]3O[C@@H](n4cnc5c(N)ncnc54)[C@H](O)[C@@H]3O)[C@@H](O)[C@H]2O)c1` [NAD], for which the Kd at alcohol dehydrogenase was ~1 µM.
On to `Cc1cn[nH]c1` [4-methylpyrazole], for which the inhibition of activity result in test [1] is “more than 90%”. Further, in test [2], the “inhibition (in words)” value is on record as “virtually uninhibited”. The inhibition in test [3] is recorded as ~ 75%.
